Experiment [1] is described as follows: Molecularly Imprinted Sorbent Assay (MIA), competitive binding of 3H-theophylline to anti-theophylline polymer. To be noted: for Cross-reaction (%) ArtAb, Theophylline antibodies: molar ratio of theophylline to ligand giving 50% inhibition of 3H-theophylline binding to polymer, ligands added to drug free serum.
Experiment [2] concerns natural antibodies (Ab's) against theophylline. To be noted: data from ref 22; cited from earlier work.
Experiment [3] can be described thus: Molecularly Imprinted Sorbent Assay (MIA), competitive binding of 3H-diazepam to anti-diazepam polymer. To be noted: molar ratio of diazepam to ligand giving 50% inhibition of 3H-diazepam binding to polymer; ligands added to drug free serum.
In experiment [4] the test system is natural antibodies (Ab's) against diazepam. The following applies: data from ref 24; cited from earlier work.
The nature of experiment [5]: Scatchard plot analysis with radio-labelled ligand, anti-diazepam polymer.
Source text: (§1) The equilibrium dissociation constants (KD) for binding of the drugs to the corresponding polymers were estimated by Scatchard plot analysis using radio-labelled ligands.
The nature of experiment [6]: Scatchard plot analysis with radio-labelled ligand, anti-theophylline polymer. The experiment is classed as binding. To be noted: LIGAND programme.
Source text: as §1

Results on 16 compounds are retold here after patent US7205162B1, “Artificial antibodies, method of producing the same and use thereof” (priority 1995, dated 2007).

For the compound `Cn1c(=O)c2[nH]c(=O)[nH]c2n(C)c1=O` [1,3-Dimethyluric acid], the “Cross-reaction (%) ArtAb, Theophylline antibodies” value in experiment [1] is listed as below 1%. The “Cross-reaction (%) Ab*, Theophylline antibodies” value in experiment [2] is recorded as below 1%.

For the compound `Cn1c(=O)[nH]c2[nH]c(=O)[nH]c2c1=O` [1-Methyluric acid], in experiment [1], the “Cross-reaction (%) ArtAb, Theophylline antibodies” value was below 1%. For the same compound, in experiment [2], the “Cross-reaction (%) Ab*, Theophylline antibodies” value is below 1%.

Take `Cn1c(=O)[nH]c(=O)c2[nH]cnc21` [3-Methylxantin, 3-methylxanthine]: in experiment [1], the “cross-reactivity in MIA for theophylline (in words)” value is “some cross-reactivity” and the “Cross-reaction (%) ArtAb, Theophylline antibodies” value came to 7%. Also, the “Cross-reaction (%) Ab*, Theophylline antibodies” value in experiment [2] is reported as 2%.

With `Cn1c(=O)c2c(ncn2CCO)n(C)c1=O` [7-(β-Hydroxyethyl)-1,3-di-methylxanthine], in experiment [1], the “Cross-reaction (%) ArtAb, Theophylline antibodies” value is given as below 1%. In experiment [2], the “Cross-reaction (%) Ab*, Theophylline antibodies” value is below 1%.

Consider `Cc1nnc2n1-c1ccc(Cl)cc1C(c1ccccc1)=NC2` [Alprazolam], for which, in experiment [3], the “Cross-reaction (%) ArtAb, Diazepam antibodies” value is 40%. The “Cross-reaction (%) Ab**, Diazepam antibodies” value (“Cross-reaction (%) Ab**” below) in experiment [4] is reported as 44%.

With `CNC1=Nc2ccc(Cl)cc2C(c2ccccc2)=[N+]([O-])C1` [Chlordiazepoxid], the “Cross-reaction (%) ArtAb, Diazepam antibodies” value in experiment [3] was found to be 2%. Also, the “Cross-reaction (%) Ab**” value in experiment [4] is below 1%.

Take `O=C1CN=C(c2ccccc2Cl)c2cc([N+](=O)[O-])ccc2N1` [Clonazepam]: in experiment [3], the “Cross-reaction (%) ArtAb, Diazepam antibodies” value was 9%. Besides, in experiment [4], the “Cross-reaction (%) Ab**” value is recorded as 5%.

`O=C1CN=C(c2ccccc2)c2cc(Cl)ccc2N1` [Demethyldiazepam, Desmethyldiazepam]: the “Cross-reaction (%) ArtAb, Diazepam antibodies” value in experiment [3] is reported as 27%. In addition, the “Cross-reaction (%) Ab**” value in experiment [4] is on record as 32%.

What is called Kd is the equilibrium constant for the complex coming apart. For the compound `CN1C(=O)CN=C(c2ccccc2)c2cc(Cl)ccc21` [Diazepam], in experiment [3], the “Cross-reaction (%) ArtAb, Diazepam antibodies” value came out at 100%. Further, the “Cross-reaction (%) Ab**” value in experiment [4] was 100%. Besides, the Kd worked out at 37.6 nM in experiment [5] (read-out: KD, high affinity binding sites, LIGAND programme) and 73.6 nM in experiment [5] (read-out: KD, low affinity binding sites, LIGAND programme).

In the case of `O=c1[nH]cnc2nc[nH]c12` [Hypoxanthine], in experiment [1], the “Cross-reaction (%) ArtAb, Theophylline antibodies” value is given as below 1%. In experiment [2], the “Cross-reaction (%) Ab*, Theophylline antibodies” value was below 1%.

As for `O=C1Nc2ccc(Cl)cc2C(c2ccccc2Cl)=NC1O` (stereo not shown) [Lorazepam], the “Cross-reaction (%) ArtAb, Diazepam antibodies” value in experiment [3] was 4%. Moreover, the “Cross-reaction (%) Ab**” value in experiment [4] is reported as 1%.

In the case of `Cn1cnc2c1c(=O)[nH]c(=O)n2C` [Theobromine, 3,7-dimetylxanthine], the “Cross-reaction (%) Ab*, Theophylline antibodies” value in experiment [2] is listed as below 1%.

With `Cn1c(=O)c2[nH]cnc2n(C)c1=O` [Theophylline, 1,3-dimethylxanthine], the “Cross-reaction (%) ArtAb, Theophylline antibodies” value in experiment [1] is 100%. Moreover, the Kd in experiment [6] (read-out: KD, high affinity binding sites) was determined as 346 nM; in experiment [6] (read-out: KD, low affinity binding sites) it was 65500 nM. Further, the “Cross-reaction (%) Ab*, Theophylline antibodies” value in experiment [2] is recorded as 100%.

In the case of `O=c1[nH]c(=O)c2[nH]c(=O)[nH]c2[nH]1` [Uric acid], in experiment [1], the “Cross-reaction (%) ArtAb, Theophylline antibodies” value is below 1%. Besides, the “Cross-reaction (%) Ab*, Theophylline antibodies” value in experiment [2] was below 1%.

In the case of `O=c1[nH]c(=O)c2[nH]cnc2[nH]1` [Xanthine], the “Cross-reaction (%) ArtAb, Theophylline antibodies” value in experiment [1] is below 1%. In addition, the “Cross-reaction (%) Ab*, Theophylline antibodies” value in experiment [2] is reported as below 1%.

With `Cn1c(=O)c2[nH]cnc2n(C)c1=O` [[^3H]-theophylline], in experiment [1] (12.5 mg polymer, acetonitrile-acetic acid (99/1), room temperature), the “time to binding equilibrium” value was determined as 8 h. Also, in experiment [1] (within 3 h, acetonitrile-acetic acid (99/1), room temperature), the “share of the binding occurred within 3 h” value amounted to 80%. Further, the “share of the binding occurred within 5 h” value in experiment [1] (within 5 h, acetonitrile-acetic acid (99/1), room temperature) came out at 90%.
